Source: patent US20240082205A1, “USE OF PHTHALIDE COMPOUNDS IN TREATMENT OF MENINGIOMA” (EVERFRONT BIOTECH INC., priority 2020, published 2024)
In brackets after ≈: the same amount, converted by molar mass.

Experiments:
IOMM-Lee cells = assay: MTT cell viability, killing meningioma cells (IOMM-Lee); format: cell-based, Human; conditions: IOMM-Lee grade III malignant meningioma cells, 72 hours; for IC50: Homo sapiens, read-out: IC50 (concentration to achieve 50% lethal rate)
Source text: (§1) In the following Examples, the used materials and equipment are described as below: • 1. Human meningioma cell lines: IOMM-Lee cells (purchased from ATCC; CRL-3370;
(§2) belonging to grade III malignant meningioma cells), AMGI-0102 primary culture cells (obtained by the approval according to the human subject research of Hualien Tzu Chi Hospital (Buddhist Tzu Chi Medical Foundation); belonging to grade I benign meningioma cells). • 2. […] Medium for AMGI-0102 cells: DMEM/F12 medium (Dulbecco's Modified Eagle Medium/F12 with L-glutamine, HEPES; purchased from HyClone; product number: SH30023.02) containing 10% Fetal Bovine Serum and 1% penicillin/streptomycin. • 4. Z-butylidenephthalide (Z-BP): provided by Everfront Biotech Inc.; purity 99.8%. • 5. E-butylidenephthalide (E-BP): provided by Everfront Biotech Inc.; purity 98.01%. • 6. 2-pentanolybenzoic acid (BP-OH): provided by Everfront Biotech Inc.; purity 99.6%. • 7. Sodium^2-pentanoylbenzoate (BPONa): provided by Everfront Biotech Inc.; purity 99.7%. • 8. 5-fluorouracil (5-FU): purchased from Sigma; product number: F6627. • 9. Carmustine (BCNU): purchased from Sigma; product number: SI-00400-100MG. • 10. MTIC: purchased from Biosynth Carbosynth; product number: FM26098. • 11. MTT (Thiazolyl Blue tetrazolium bromide, 3-[4,5-dimethylthiahiazo-2-yl]-2,4-dipheny-tetrazolium bromide): purchased from ALFA Aesar™; product number: L11939-000000-16AF. • 12. ELISA reader: purchased from Thermo Fisher Scientific; model number: 22662. • 13. […]
IOMM-Lee cells and AMGI-0102 cells were independently seeded in a 96-well plate (1×10^4 cells/well), and the 96-well plate was placed under an environment of 37° C. and 5% CO2 for 24 hours. After that, the cells in the 96-well plate were subjected to the following procedures: • (a) the cells in different wells were cultured with a medium containing Z-butylidenephthalide, E-butylidenephthalide, 2-pentanolybenzoic acid, or sodium^2-pentanoylbenzoate, and the 96-well plate was placed under an environment of 37° C. and 5% CO2 for 72 hours; • (b) MTT was added into each well (the final concentration is 0.5 mg/ml), and the 96-well plate was placed under an environment of 37° C. and 5% CO2 for 1.5 hours; • (c) the medium of each well was removed, and then dimethyl sulfoxide was added (100 μl/well); and • (d) an absorbance value of each well at 595 nm was measured by an ELISA reader. […]

AMGI-0102 cells = assay: MTT cell viability, killing meningioma cells (AMGI-0102); format: cell-based, Human; conditions: AMGI-0102 grade I benign meningioma primary culture cells, 72 hours
Source text: as §1
as §2, with “MTT (Thiazolyl Blue tetrazolium bromide, 3-[4,5-dimethylthiahiazo-2-yl]-2,4-dipheny-tetrazolium bromide): purchased from ALFA Aesar™; product number: L11939-000000-16AF. • 12.” left out

p-ERK protein = assay: Western Blotting of p-ERK protein in IOMM-Lee cells; format: cell-based, Human; conditions: IOMM-Lee cells, 0, 16.8 and 33.6 μg/ml, 24 hours, FIG. 1
Source text: (§3) It is known that the activations (phosphorylation) of ERK (extracellular signal-regulated kinase) protein and JNK (c-Jun N-terminal kinase) protein in the protein kinase family are related to the proliferation of tumor cells. The aforesaid facts can be found in such as: “The ERK and JNK pathways in the regulation of metabolic reprogramming ” Oncogene. 2019; 38: 2223-2240; “ERK Inhibitor LY3214996 Targets ERK Pathway-Driven Cancers: A Therapeutic Approach Toward Precision Medicine.” Mol Cancer Ther. 2020 February; 19(2):325-336; and “The novel JNK inhibitor AS602801 inhibits cancer stem cells in vitro and in vivo.” Oncotarget. 2016 May 10; 7(19):27021-32, which are entirely incorporated hereinto by reference. Therefore, if the activations of ERK protein and JNK protein in tumor cells can be reduced, the meningioma growth will be inhibited.
(§4) IOMM-Lee cells were seeded in a 10 cm culture dish ([…]), and the dish was placed under an environment of 37° C. and 5% CO2 for 24 hours. Then, the cells in different dishes were independently cultured with a medium containing Z-butylidenephthalide at concentrations of 0, 16.8 and 33.6 μg/ml. […] Finally, the expressions of the inactivated JNK protein and ERK protein, and the activated p-JNK protein and p-ERK protein in the cells were detected by Western Blotting. […]

p-JNK protein = assay: Western Blotting of p-JNK protein in IOMM-Lee cells; format: cell-based, Human; conditions: IOMM-Lee cells, 0, 16.8 and 33.6 μg/ml, 24 hours, FIG. 1
Source text: as §3, §4

grade III meningioma = assay: Human test: tumor size by T1-weighted MRI after wafer implantation; format: in vivo; conditions: one subject with grade III meningioma; six wafers (75 mg Z-butylidenephthalide per wafer) implanted in resection cavity, plus oral temozolomide; up to 224 days after operation
Experimental: In this example, depending on the approval of the Research Ethics Committee Hualien Tzu Chi Hospital (Buddhist Tzu Chi Medical Foundation; SP109-04), meningioma patients were administered with Z-butylidenephthalide to observe the effects of the compounds of the present invention on inhibiting meningioma growth.
During the surgical operation for resecting meningioma in a subject (suffered with grade III meningioma), six wafers containing Z-butylidenephthalide (75 mg of Z-butylidenephthalide per wafer) were implanted into the cavity generated by resecting meningioma. The subject also took 150 mg/m^2 of body surface area/day (the first treatment course) or 200 mg/m^2 of body surface area/day (the second to sixth treatment course) of temozolomide via oral administration every day post-operation. […] On the other hand, the tumor size in the pictures of the subject's brain (at pre-operation, and post-operative days 1, 28, 84, 168, and 224), obtained by T1-weighted magnetic resonance imaging, was also calculated by using StealthStation S7 software (purchased from Medtronic company, US).

How did the “IC50 (concentration to achieve 50% lethal rate)” value (IOMM-Lee cells) turn out when 2-pentanolybenzoic acid was run?
Its value is 304.3 µg/mL.

And the “IC50 (concentration to achieve 50% lethal rate)” value (AMGI-0102 cells)?
The value was 1286.3 µg/mL.

Which IC50 (IOMM-Lee cells) does the source give for CCCCC(=O)c1ccccc1C(=O)[O-].[Na+] [sodium 2-pentanoylbenzoate] here?
The IC50 was 365 µg/mL.

Which “expression of p-ERK protein” value (p-ERK protein) does the source give for CCC/C=C1\OC(=O)c2ccccc21 [Z-butylidenephthalide] here?
The value was “significantly decreased”.

What about the IC50 (IOMM-Lee cells) of the same molecule?
Its IC50 is 33.5 µg/mL (≈ 178 µM).

And the “expression of p-JNK protein” value (p-JNK protein)?
The value was “significantly decreased”.

And the “tumor size of the subject” value (grade III meningioma)?
Its value is “no change in the tumor size”.

What about the IC50 (AMGI-0102 cells; Homo sapiens, read-out: IC50 (concentration to achieve 50% lethal rate)) of the same molecule?
The IC50 was 94.5 µg/mL (≈ 502 µM).

Which IC50 (IOMM-Lee cells) does the source give for CCC/C=C1/OC(=O)c2ccccc21 [E-butylidenephthalide] here?
Its IC50 is 306 µg/mL (≈ 1630 µM).
